The target of test [1] is T1, CCK2R (Homo sapiens, UniProt P32239).
T1 sequence (P32239 1-447): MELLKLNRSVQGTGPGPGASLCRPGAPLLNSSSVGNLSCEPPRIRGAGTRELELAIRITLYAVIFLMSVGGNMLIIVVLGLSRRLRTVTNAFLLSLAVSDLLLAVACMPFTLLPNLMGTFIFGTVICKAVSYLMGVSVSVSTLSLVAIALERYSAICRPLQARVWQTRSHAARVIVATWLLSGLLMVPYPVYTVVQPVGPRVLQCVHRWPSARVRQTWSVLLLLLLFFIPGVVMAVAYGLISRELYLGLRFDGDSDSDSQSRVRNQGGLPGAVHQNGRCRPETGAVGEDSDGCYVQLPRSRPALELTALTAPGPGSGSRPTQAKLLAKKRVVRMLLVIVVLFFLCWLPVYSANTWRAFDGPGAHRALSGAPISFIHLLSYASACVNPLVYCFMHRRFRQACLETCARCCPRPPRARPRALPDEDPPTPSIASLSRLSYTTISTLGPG
The test is described as follows: Intracellular calcium response in CHO-CCK2R cells. It is filed as cell-based. A general note: A change in cytosolic calcium serves as a functional read-out for many receptors and channels.

The target of test [2] is T2, CCK1R (Homo sapiens, UniProt P32238).
T2 sequence (P32238 1-428): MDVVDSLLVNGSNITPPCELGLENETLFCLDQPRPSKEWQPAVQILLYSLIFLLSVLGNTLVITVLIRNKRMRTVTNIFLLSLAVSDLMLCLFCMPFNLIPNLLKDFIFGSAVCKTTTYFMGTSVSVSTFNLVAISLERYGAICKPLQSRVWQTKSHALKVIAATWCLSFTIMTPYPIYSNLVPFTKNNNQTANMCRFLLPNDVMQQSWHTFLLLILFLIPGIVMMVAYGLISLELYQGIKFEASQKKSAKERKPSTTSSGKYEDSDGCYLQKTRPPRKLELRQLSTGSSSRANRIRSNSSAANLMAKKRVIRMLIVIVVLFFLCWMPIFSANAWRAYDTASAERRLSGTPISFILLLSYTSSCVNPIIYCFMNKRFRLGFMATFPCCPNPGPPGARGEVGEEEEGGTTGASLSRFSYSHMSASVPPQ
It is filed as cell-based.

Test [3] deals with T3, CCK2R TM3 (V3.28T, S3.29T) (Homo sapiens, UniProt P32239, S131T/V130T).
T3 sequence (P32239 1-447 V130T/S131T): T1 sequence (P32239 1-447) with V130T, S131T
The experiment in a line: 125I-CCK competition binding, chimeric construct.

Test [4] deals with T4, CCK2R TM2 (T2.61N) (Homo sapiens, UniProt P32239, T111N).
T4 sequence (P32239 1-447 T111N): T1 sequence (P32239 1-447) with T111N
The test is described as follows: 125I-BDZ-2 competition binding, chimeric construct. Particulars: NDB = no detectable binding.

The target of test [5] is T2, CCK1R. The experiment in a line: Intracellular calcium response in CHO-CCK1R cells. It is filed as cell-based. Particulars: % of the ATP (0.1mM) positive control.
The target in test [6] is T5, CCK2R TM6 (V6.51I, Y6.52F) (Homo sapiens, UniProt P32239, V349I/Y350F).
T5 sequence (P32239 1-447 V349I/Y350F): T1 sequence (P32239 1-447) with V349I, Y350F
The test is described as follows: 125I-BDZ-2 competition binding, chimeric construct.

For test [7], the target named is T1, CCK2R. The experiment in a line: Competition binding of orthosteric radioligand 125I-CCK, CHO cell membranes. Particulars: 125I-CCK radioligand.
Test [8] deals with T2, CCK1R. Described as above.
For test [9], the target named is T4, CCK2R TM2 (T2.61N). The test is described as follows: 125I-CCK competition binding, chimeric construct.
The subject of test [10] is CCK2R TM chimeric constructs. The experiment in a line: 125I-BDZ-2 competition binding, CCK2R-based chimeras as a group.
Test [11] addresses T5, CCK2R TM6 (V6.51I, Y6.52F). The test is described as follows: 125I-CCK competition binding, chimeric construct.

Usually IC50 stands for the concentration at which inhibition is half-maximal.

Each structure is given as a SMILES string. Positions count from the first letter of the chain named. “Also recorded” adds a separate entry of the source. Like-named read-outs stand apart in the source and are kept apart here.

For `O=C(CN1C(=O)C(NC(=O)Nc2ccccc2)C(=O)N(c2ccccc2)c2ccccc21)Nc1ccccc1` (stereo not drawn), the “Intracellular calcium response at CCK2R-expressing cells” value at CCK2R [1] was “stimulated no intracellular calcium responses”. Further, at CCK1R [2] (1µM compound), the “Decrease in efficacy of the CCK response” value is 11%.

Turning to `CC(C)N(C(=O)CN1C(=O)[C@H](NC(=O)Nc2cccc(C(=O)O)c2)C(=O)N(c2ccccc2)c2ccccc21)c1ccccc1` [GI181771X, reference compound], on CCK1R [2] (increasing concentrations of compound), the “Allosteric modulatory (PAM) activity on CCK dose-response curve” value is reported as “did not yield a significant left-shift or an increase in efficacy; also recorded: no PAM activity”.

For `COc1ccc(N(C)C(=O)CN2C(=O)C(NC(=O)Nc3ccccc3)C(=O)N(c3ccccc3)c3ccccc32)cc1` (stereo not drawn) [GR135470X], the IC50 in [3] came out at 0.0101 ± 0.0016 µM; in test [6], 0.036 ± 0.0055 µM; at CCK1R [8] it was 0.45 ± 0.104 µM; on CCK2R TM2 (T2.61N) [9], 0.519 ± 0.138 µM; in test [11], 0.165 ± 0.038 µM. Also, the “Intracellular calcium response at CCK2R-expressing cells” value at CCK2R [1] was “stimulated no intracellular calcium responses”. Also, at CCK2R TM2 (T2.61N) [4], the “IC50, 125I-BDZ-2” value is reported as “NDB”. Moreover, the Intrinsic agonist response is 43% on CCK1R [5] (100nM compound) and 48% at CCK1R [5] (1µM compound). The “Fold lower IC50 at CCK2R than at CCK1R” value at CCK2R [7] is reported as ~ 9 fold. The “Shift to the right in the CCK dose-response curve” value at CCK1R [2] (100nM compound) amounted to 3.6 fold; on CCK1R [2] (1µM compound), 8.5 fold. Besides, on CCK1R [2] (1µM compound), the “Decrease in efficacy of the CCK response” value amounted to 14%. For the same compound, the “Right shift (poorer affinity) vs wild type CCK2R” value at CCK2R TM2 (T2.61N) [9] (125I-CCK, CCK2R TM2 substitution) amounted to 10 fold. In addition, the “Change in binding affinity at chimeras vs wild type CCK2R” value in test [10] is reported as “none of the chimeras tested exhibited a change in binding affinities”.

The record behind these values is paper PMC4408270 (Bioorganic & medicinal chemistry letters, 2015).
